pIC50: −log10 of the molar value.
Key:
Assay in all cases: In vitro antiproliferative activity in the presence of MMP-2 inhibitor
Format in all cases: cell-based, human
SK-OV-3 cells = details: 16 h pre-incubation with MMP-2 inhibitor 10 µM, then 72 h continuous treatment, 5% serum final; average ± SD, triplicate; read-out: IC50 MMP-2 inhibitor + Treatment 72 h SK-OV-3 (αVβ3 +)
Description: (§1) For the evaluation of the in vitro antiproliferative activity of compounds, the cell viability was determined by MTT assay (3-(4,5-dimethylthiazol-2-yl)-2,5-diphenyl-tetrazolium bromide) obtained from Duchefa Biochemie (Haarlem, Netherlands).
(§2) 22 µL of MTT solution (5 mg/mL in PBS, 0.5 mg/mL final) was added to each well and after 2 h incubation at 37°C, the supernatant was removed. The precipitated purple formazan crystals were dissolved in 100 µL of a 1:1 solution of dimethylsulfoxide (DMSO; Merck, St. Louis, MO, United States): 96% Ethanol (Molar Chemicals Kft., Halásztelek, Hungary) and the absorbance was measured after 15 min at λ = 570 nm by using microplate reader CLARIOstar Plus (BMG Labtech, Ortenberg, Germany). Average background absorbance (DMSO-Ethanol) was subtracted from absorbance values of control and treated wells, and cell viability was determined relative to untreated (control) wells where cell viability was arbitrarily set to 100%. Absorbance values of treated samples were normalized versus untreated control samples and interpolated by nonlinear regression analysis with GraphPad Prism 6 software (GraphPad, La Jolla, San Diego, CA, United States) to generate sigmoidal dose-response curves from which the 50% inhibitory concentration (IC50) values of the compounds were calculated and presented as nanomolar (nM) units. The experiments were done in triplicate and each experiment was repeated three times.
(§3) The conjugate 2 and the free MMAE were tested in presence of the MMP-2 inhibitor cis-9-octadecenoyl-N-hydroxylamine (Merck) dissolved in DMSO ([You et al., 2018]). The three αVβ3 integrin and MMP-2 overexpressing cancer cell lines (U87MG, SK-MEL-28, […]) were seeded with serum containing medium ([Ellijimi et al., 2018]; [Shim et al., 2019]) and, after 8 h, were washed-out. Then, 100 µL per well of MMP-2 inhibitor (10 µM final concentration) were added and cells were incubated for 16 h, prior to the treatment. Later, the conjugate 2 and free MMAE were dissolved in 10% serum containing medium and added to reach the same concentrations evaluated in the previous test in a final volume of 100 µL per well and incubated (5% serum final) continuously for 72 h of the treatment. The experiments were performed in triplicate.

SK-MEL-28 cells = details: 16 h pre-incubation with MMP-2 inhibitor 10 µM, then 72 h continuous treatment, 5% serum final; average ± SD, triplicate; read-out: IC50 MMP-2 inhibitor + Treatment 72 h SK-MEL-28 (αVβ3 +)
Description: as §1, §2, §3

U87MG cells = details: 16 h pre-incubation with MMP-2 inhibitor 10 µM, then 72 h continuous treatment, 5% serum final; average ± SD, triplicate; read-out: IC50 MMP-2 inhibitor + Treatment 72 h U87MG (αVβ3 +)
Description: as §1, §2, §3

For CC[C@H](C)[C@@H]([C@@H](CC(=O)N1CCC[C@H]1[C@H](OC)[C@@H](C)C(=O)N[C@H](C)[C@@H](O)c1ccccc1)OC)N(C)C(=O)[C@@H](NC(=O)[C@H](C(C)C)N(C)C(=O)OCc1ccc(NC(=O)CNC(=O)[C@H](CC(C)C)NC(=O)[C@@H]2CCCN2C(=O)CNC(=O)CCc2cn(CCOCCOCCOCCOCC(=O)NCc3ccc(CN4C(=O)[C@H]5CC(=O)N[C@H](C(=O)O)CC(=O)NCC(=O)N[C@@H](CCCNC(=N)N)C(=O)NC[C@H]4C(=O)N5)cc3)nn2)cc1)C(C)C [compound 2, cyclo[DKP-isoDGR]-PEG4-GPLG-PABC-MMAE], the pIC50 (SK-OV-3 cells) was 8.49, the pIC50 (SK-MEL-28 cells) was 7.54 and the pIC50 (U87MG cells) was 8.13.

— paper PMC10363981, “Optimizing the enzymatic release of MMAE from isoDGR-based small molecule drug conjugate by incorporation of a GPLG-PABC enzymatically cleavable linker” (Frontiers in Pharmacology, 2023)
